Assay results as given in ChEMBL document CHEMBL1201862, “PubChem BioAssay data set” (2004).
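Growth conditions: 96-well plates. Treatment: test compound, 48 hours, 5 concentrations. Analysis: linear interpolation between bracketing concentrations; unreached endpoints set to highest concentration. The concentration for 50% growth inhibition is given as GI50.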 Calls of active or inactive are those of the source. No stated cut-off is given here; in the data, active = GI50 up to about 1.1 µM and inactive = higher.

Columns and labels:
Assay in all cases: DTP human tumour cell line panel, 48 h
A498 = tested on: A498
A549 = tested on: A549
ACHN = tested on: ACHN
CAKI-1 = tested on: CAKI-1
CCRF-CEM = tested on: CCRF-CEM
COLO 205 = tested on: COLO 205
DU-145 = tested on: DU-145
EKVX = tested on: EKVX
HCC 2998 = tested on: HCC 2998
HCT-15 = tested on: HCT-15
HL-60 = tested on: HL-60
HOP-62 = tested on: HOP-62
HOP-92 = tested on: HOP-92
HT-29 = tested on: HT-29
Hs-578T = tested on: Hs-578T
IGROV-1 = tested on: IGROV-1
K562 = tested on: K562
KM12 = tested on: KM12
LOX IMVI = tested on: LOX IMVI
M14 = tested on: M14
MCF7 = tested on: MCF7
MDA-MB-231 = tested on: MDA-MB-231
MDA-MB-435 = tested on: MDA-MB-435
MDA-N = tested on: MDA-N
MOLT-4 = tested on: MOLT-4
NCI-H226 = tested on: NCI-H226
NCI-H23 = tested on: NCI-H23
NCI-H460 = tested on: NCI-H460
NCI/ADR-RES = tested on: NCI/ADR-RES
OVCAR-3 = tested on: OVCAR-3
OVCAR-4 = tested on: OVCAR-4
OVCAR-5 = tested on: OVCAR-5
OVCAR-8 = tested on: OVCAR-8
PC-3 = tested on: PC-3
RPMI-8226 = tested on: RPMI-8226
RXF 393 = tested on: RXF 393
SF-268 = tested on: SF-268
SF-295 = tested on: SF-295
SF-539 = tested on: SF-539
SK-MEL-28 = tested on: SK-MEL-28
SK-MEL-2 = tested on: SK-MEL-2
SK-MEL-5 = tested on: SK-MEL-5
SK-OV-3 = tested on: SK-OV-3
SNB-19 = tested on: SNB-19
SNB-75 = tested on: SNB-75
SR = tested on: SR
SW-620 = tested on: SW-620
T47D = tested on: T47D
TK-10 = tested on: TK-10
U-251 = tested on: U-251
UACC-257 = tested on: UACC-257
UACC-62 = tested on: UACC-62
UO-31 = tested on: UO-31
786-0 = tested on: 786-0
HCT-116 = tested on: HCT-116
Malme-3M = tested on: Malme-3M
NCI-H522 = tested on: NCI-H522
SN12C = tested on: SN12C

In the case of `COCO[C@@H]1C[C@H]2C(O)Nc3ccccc3C(=O)N2C1` (stereo partly specified), the GI50 (A498) is reported as > 100 µM (inactive), the GI50 (A549) is reported as > 100 µM (inactive) and the GI50 (ACHN) is reported as > 100 µM (inactive). For the same compound, the GI50 (CAKI-1) was > 100 µM (inactive), the GI50 (CCRF-CEM) was > 100 µM (inactive) and the GI50 (COLO 205) was > 100 µM (inactive). For the same compound, the GI50 (DU-145) was > 100 µM (inactive), the GI50 (EKVX) was > 100 µM (inactive) and the GI50 (HCC 2998) was > 100 µM (inactive). The GI50 (HCT-15) was over 100 µM, the GI50 (HL-60) was > 100 µM (inactive) and the GI50 (HOP-62) was > 100 µM (inactive). For the same compound, the GI50 (HOP-92) was > 100 µM (inactive), the GI50 (HT-29) was > 100 µM (inactive) and the GI50 (Hs-578T) was > 100 µM (inactive). For the same compound, the GI50 (IGROV-1) was > 100 µM (inactive), the GI50 (K562) was > 100 µM (inactive) and the GI50 (KM12) was > 100 µM (inactive). The GI50 (LOX IMVI) was > 100 µM (inactive), the GI50 (M14) was > 100 µM (inactive) and the GI50 (MCF7) was > 100 µM (inactive). For the same compound, the GI50 (MDA-MB-231) was > 100 µM (inactive), the GI50 (MDA-MB-435) was > 100 µM (inactive) and the GI50 (MDA-N) was > 100 µM (inactive). The GI50 (MOLT-4) was > 100 µM (inactive), the GI50 (NCI-H226) was > 100 µM (inactive) and the GI50 (NCI-H23) was > 100 µM (inactive). The GI50 (NCI-H460) was > 100 µM (inactive), the GI50 (NCI/ADR-RES) was > 100 µM (inactive) and the GI50 (OVCAR-3) was > 100 µM (inactive). The GI50 (OVCAR-4) was > 100 µM (inactive), the GI50 (OVCAR-5) was > 100 µM (inactive) and the GI50 (OVCAR-8) was > 100 µM (inactive). For the same compound, the GI50 (PC-3) was > 100 µM (inactive), the GI50 (RPMI-8226) was > 100 µM (inactive) and the GI50 (RXF 393) was > 100 µM (inactive). The GI50 (SF-268) was > 100 µM (inactive), the GI50 (SF-295) was > 100 µM (inactive) and the GI50 (SF-539) was > 100 µM (inactive). For the same compound, the GI50 (SK-MEL-28) was > 100 µM (inactive), the GI50 (SK-MEL-2) was > 100 µM (inactive) and the GI50 (SK-MEL-5) was > 100 µM (inactive). The GI50 (SK-OV-3) was > 100 µM (inactive), the GI50 (SNB-19) was > 100 µM (inactive) and the GI50 (SNB-75) was > 100 µM (inactive). The GI50 (SR) was > 100 µM (inactive), the GI50 (SW-620) was > 100 µM (inactive) and the GI50 (T47D) was > 100 µM (inactive). The GI50 (TK-10) was > 100 µM (inactive), the GI50 (U-251) was > 100 µM (inactive) and the GI50 (UACC-257) was > 100 µM (inactive). For the same compound, the GI50 (UACC-62) was > 100 µM (inactive) and the GI50 (UO-31) was > 100 µM (inactive).
`COc1ccc(/C=C2/NC(=S)N=C2Cl)cc1` was tested, and the GI50 (786-0) was > 100 µM (inactive), the GI50 (A498) was > 100 µM (inactive) and the GI50 (A549) was 85.1 µM (inactive). For the same compound, the GI50 (ACHN) was > 100 µM (inactive), the GI50 (CAKI-1) was > 100 µM (inactive) and the GI50 (CCRF-CEM) was > 100 µM (inactive). The GI50 (COLO 205) was > 100 µM (inactive), the GI50 (DU-145) was > 100 µM (inactive) and the GI50 (EKVX) was > 100 µM (inactive). The GI50 (HCT-116) was > 100 µM (inactive), the GI50 (HCT-15) was over 100 µM and the GI50 (HL-60) was > 100 µM (inactive). For the same compound, the GI50 (HOP-62) was > 100 µM (inactive), the GI50 (HOP-92) was > 100 µM (inactive) and the GI50 (HT-29) was > 100 µM (inactive). The GI50 (Hs-578T) was > 100 µM (inactive), the GI50 (IGROV-1) was > 100 µM (inactive) and the GI50 (K562) was > 100 µM (inactive). For the same compound, the GI50 (KM12) was 58.3 µM (inactive), the GI50 (LOX IMVI) was > 100 µM (inactive) and the GI50 (M14) was > 100 µM (inactive). The GI50 (MCF7) was > 100 µM (inactive), the GI50 (MDA-MB-231) was > 100 µM (inactive) and the GI50 (MDA-MB-435) was > 100 µM (inactive). The GI50 (MDA-N) was > 100 µM (inactive), the GI50 (MOLT-4) was > 100 µM (inactive) and the GI50 (Malme-3M) was > 100 µM (inactive). For the same compound, the GI50 (NCI-H226) was > 100 µM (inactive), the GI50 (NCI-H23) was > 100 µM (inactive) and the GI50 (NCI-H522) was > 100 µM (inactive). For the same compound, the GI50 (NCI/ADR-RES) was > 100 µM (inactive), the GI50 (OVCAR-3) was > 100 µM (inactive) and the GI50 (OVCAR-4) was > 100 µM (inactive). For the same compound, the GI50 (OVCAR-5) was 21.5 µM (inactive), the GI50 (OVCAR-8) was > 100 µM (inactive) and the GI50 (PC-3) was > 100 µM (inactive). For the same compound, the GI50 (RPMI-8226) was > 100 µM (inactive), the GI50 (RXF 393) was > 100 µM (inactive) and the GI50 (SF-268) was > 100 µM (inactive). For the same compound, the GI50 (SF-295) was > 100 µM (inactive), the GI50 (SF-539) was > 100 µM (inactive) and the GI50 (SK-MEL-28) was > 100 µM (inactive). For the same compound, the GI50 (SK-MEL-2) was > 100 µM (inactive), the GI50 (SK-MEL-5) was > 100 µM (inactive) and the GI50 (SK-OV-3) was > 100 µM (inactive). For the same compound, the GI50 (SN12C) was > 100 µM (inactive), the GI50 (SNB-19) was > 100 µM (inactive) and the GI50 (SNB-75) was > 100 µM (inactive). The GI50 (SR) was > 100 µM (inactive), the GI50 (SW-620) was > 100 µM (inactive) and the GI50 (T47D) was > 100 µM (inactive). The GI50 (TK-10) was > 100 µM (inactive), the GI50 (U-251) was > 100 µM (inactive) and the GI50 (UACC-257) was > 100 µM (inactive). The GI50 (UO-31) was > 100 µM (inactive).
For `Cc1ccc(CC[PH](=O)CCc2ccc(C)nc2)cn1`, the GI50 (786-0) was > 100 µM (inactive), the GI50 (ACHN) was > 100 µM (inactive) and the GI50 (CAKI-1) was > 100 µM (inactive). For the same compound, the GI50 (CCRF-CEM) was > 100 µM (inactive), the GI50 (COLO 205) was > 100 µM (inactive) and the GI50 (DU-145) was > 100 µM (inactive). The GI50 (EKVX) was > 100 µM (inactive), the GI50 (HCC 2998) was > 100 µM (inactive) and the GI50 (HCT-116) was > 100 µM (inactive). For the same compound, the GI50 (HCT-15) was over 100 µM, the GI50 (HL-60) was > 100 µM (inactive) and the GI50 (HOP-62) was > 100 µM (inactive). The GI50 (HOP-92) was > 100 µM (inactive), the GI50 (HT-29) was > 100 µM (inactive) and the GI50 (Hs-578T) was > 100 µM (inactive). For the same compound, the GI50 (IGROV-1) was > 100 µM (inactive), the GI50 (K562) was > 100 µM (inactive) and the GI50 (KM12) was > 100 µM (inactive). For the same compound, the GI50 (LOX IMVI) was > 100 µM (inactive), the GI50 (M14) was > 100 µM (inactive) and the GI50 (MCF7) was > 100 µM (inactive). For the same compound, the GI50 (MDA-MB-231) was > 100 µM (inactive), the GI50 (MDA-MB-435) was > 100 µM (inactive) and the GI50 (MDA-N) was > 100 µM (inactive). The GI50 (MOLT-4) was > 100 µM (inactive), the GI50 (Malme-3M) was > 100 µM (inactive) and the GI50 (NCI-H226) was > 100 µM (inactive). For the same compound, the GI50 (NCI-H23) was > 100 µM (inactive), the GI50 (NCI-H460) was > 100 µM (inactive) and the GI50 (NCI-H522) was > 100 µM (inactive). The GI50 (NCI/ADR-RES) was > 100 µM (inactive), the GI50 (OVCAR-3) was > 100 µM (inactive) and the GI50 (OVCAR-4) was > 100 µM (inactive). The GI50 (OVCAR-5) was > 100 µM (inactive), the GI50 (OVCAR-8) was > 100 µM (inactive) and the GI50 (PC-3) was > 100 µM (inactive). For the same compound, the GI50 (RPMI-8226) was > 100 µM (inactive), the GI50 (RXF 393) was > 100 µM (inactive) and the GI50 (SF-268) was > 100 µM (inactive). For the same compound, the GI50 (SF-295) was > 100 µM (inactive), the GI50 (SF-539) was > 100 µM (inactive) and the GI50 (SK-MEL-28) was > 100 µM (inactive). The GI50 (SK-MEL-5) was > 100 µM (inactive), the GI50 (SK-OV-3) was > 100 µM (inactive) and the GI50 (SN12C) was > 100 µM (inactive). The GI50 (SNB-19) was > 100 µM (inactive), the GI50 (SR) was > 100 µM (inactive) and the GI50 (SW-620) was > 100 µM (inactive). For the same compound, the GI50 (T47D) was > 100 µM (inactive), the GI50 (TK-10) was > 100 µM (inactive) and the GI50 (U-251) was > 100 µM (inactive). For the same compound, the GI50 (UACC-257) was > 100 µM (inactive) and the GI50 (UACC-62) was > 100 µM (inactive).
